Test results taken from article PMC11062922 (Nature Chemical Biology, 2023).

Assays:
EGFR = biological target: T1, EGFR (Homo sapiens, UniProt P00533); assay: Kinobeads two-dose competition binding: EGFR; details: for CATDS: target EGFR
T1 construct: endogenous in cells

ACOX3 = assay: Kinobeads competition binding: ACOX3; design: species or system human; details: target ACOX3;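 further: share of all-target engagement taken by this protein at its own Kdapp concentration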
CDC42 = assay: Kinobeads competition binding: CDC42; design: species or system human; details: target CDC42
DDR2 = assay: Kinobeads competition binding: DDR2; design: species or system human; details: target DDR2;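 further: target engagement share of this target among all targets at its Kdapp concentration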
EPHB2 = biological target: T2, EPHB2 (Homo sapiens, UniProt P29323); assay: Kinobeads competition binding: EPHB2; details: target EPHB2;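 further: target engagement share of this target among all targets at its Kdapp concentration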
T2 construct: endogenous in cells
T2 sequence (P29323 19-1055): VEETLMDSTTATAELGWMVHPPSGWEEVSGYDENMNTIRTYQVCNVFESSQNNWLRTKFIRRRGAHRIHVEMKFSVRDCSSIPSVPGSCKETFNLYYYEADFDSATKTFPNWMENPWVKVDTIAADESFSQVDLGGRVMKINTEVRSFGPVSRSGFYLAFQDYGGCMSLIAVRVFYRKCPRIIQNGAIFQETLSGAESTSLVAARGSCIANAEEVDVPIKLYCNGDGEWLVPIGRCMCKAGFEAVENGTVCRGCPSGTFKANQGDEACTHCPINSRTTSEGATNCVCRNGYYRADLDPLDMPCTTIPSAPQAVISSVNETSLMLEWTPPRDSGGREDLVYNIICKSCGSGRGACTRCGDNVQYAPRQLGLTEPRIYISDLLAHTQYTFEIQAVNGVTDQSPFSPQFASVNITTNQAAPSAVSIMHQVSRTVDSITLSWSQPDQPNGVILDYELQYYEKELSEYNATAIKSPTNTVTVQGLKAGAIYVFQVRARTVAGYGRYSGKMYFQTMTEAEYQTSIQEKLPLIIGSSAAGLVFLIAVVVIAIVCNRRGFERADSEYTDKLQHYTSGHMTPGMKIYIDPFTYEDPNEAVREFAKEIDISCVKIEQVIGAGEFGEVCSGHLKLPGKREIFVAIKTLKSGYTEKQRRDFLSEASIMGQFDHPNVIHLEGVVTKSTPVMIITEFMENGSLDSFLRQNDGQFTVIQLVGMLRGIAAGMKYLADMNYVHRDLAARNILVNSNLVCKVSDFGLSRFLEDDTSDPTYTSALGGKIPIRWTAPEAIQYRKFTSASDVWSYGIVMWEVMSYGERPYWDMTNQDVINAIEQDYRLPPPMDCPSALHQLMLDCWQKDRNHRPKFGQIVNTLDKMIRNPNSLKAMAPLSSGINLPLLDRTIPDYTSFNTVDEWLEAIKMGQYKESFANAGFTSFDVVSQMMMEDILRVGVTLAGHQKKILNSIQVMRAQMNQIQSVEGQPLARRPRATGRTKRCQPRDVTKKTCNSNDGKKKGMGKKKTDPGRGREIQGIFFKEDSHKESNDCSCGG
Excerpt: Supplement 41589_2023_1459_MOESM4_ESM.xlsx, sheet "CATDS matrix" | column: EPHB2

ERN2 = biological target: T3, ERN2 (Homo sapiens, UniProt Q76MJ5); assay: Kinobeads competition binding: ERN2; details: target ERN2
T3 construct: endogenous in cells
T3 sequence (Q76MJ5 35-926): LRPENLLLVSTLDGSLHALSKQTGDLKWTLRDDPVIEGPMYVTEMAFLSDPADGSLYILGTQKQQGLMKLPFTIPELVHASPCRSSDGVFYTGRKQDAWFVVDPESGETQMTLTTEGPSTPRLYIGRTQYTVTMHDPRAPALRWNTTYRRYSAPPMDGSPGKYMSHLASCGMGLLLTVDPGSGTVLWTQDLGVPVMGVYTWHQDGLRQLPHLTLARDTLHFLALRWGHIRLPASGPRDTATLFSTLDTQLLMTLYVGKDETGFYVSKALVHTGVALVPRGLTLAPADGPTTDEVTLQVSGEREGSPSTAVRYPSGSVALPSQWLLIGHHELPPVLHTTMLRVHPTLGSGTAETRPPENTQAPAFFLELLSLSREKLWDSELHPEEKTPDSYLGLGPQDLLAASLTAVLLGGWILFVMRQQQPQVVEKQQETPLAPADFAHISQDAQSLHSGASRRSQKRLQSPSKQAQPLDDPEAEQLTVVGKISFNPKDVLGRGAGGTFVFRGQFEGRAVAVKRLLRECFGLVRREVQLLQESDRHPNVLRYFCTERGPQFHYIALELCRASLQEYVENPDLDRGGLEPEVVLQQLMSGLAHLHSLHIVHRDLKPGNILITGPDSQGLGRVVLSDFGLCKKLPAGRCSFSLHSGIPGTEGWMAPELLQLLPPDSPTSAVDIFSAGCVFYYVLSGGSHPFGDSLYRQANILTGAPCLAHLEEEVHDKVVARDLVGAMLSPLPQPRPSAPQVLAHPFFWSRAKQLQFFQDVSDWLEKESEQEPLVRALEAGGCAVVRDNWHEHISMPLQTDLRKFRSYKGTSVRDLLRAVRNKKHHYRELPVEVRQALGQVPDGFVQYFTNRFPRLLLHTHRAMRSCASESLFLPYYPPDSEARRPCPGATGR

FER = biological target: T4, FER (Homo sapiens, UniProt P16591); assay: Kinobeads competition binding: FER; details: target FER
T4 construct: endogenous in cells
T4 sequence (P16591 whole entry): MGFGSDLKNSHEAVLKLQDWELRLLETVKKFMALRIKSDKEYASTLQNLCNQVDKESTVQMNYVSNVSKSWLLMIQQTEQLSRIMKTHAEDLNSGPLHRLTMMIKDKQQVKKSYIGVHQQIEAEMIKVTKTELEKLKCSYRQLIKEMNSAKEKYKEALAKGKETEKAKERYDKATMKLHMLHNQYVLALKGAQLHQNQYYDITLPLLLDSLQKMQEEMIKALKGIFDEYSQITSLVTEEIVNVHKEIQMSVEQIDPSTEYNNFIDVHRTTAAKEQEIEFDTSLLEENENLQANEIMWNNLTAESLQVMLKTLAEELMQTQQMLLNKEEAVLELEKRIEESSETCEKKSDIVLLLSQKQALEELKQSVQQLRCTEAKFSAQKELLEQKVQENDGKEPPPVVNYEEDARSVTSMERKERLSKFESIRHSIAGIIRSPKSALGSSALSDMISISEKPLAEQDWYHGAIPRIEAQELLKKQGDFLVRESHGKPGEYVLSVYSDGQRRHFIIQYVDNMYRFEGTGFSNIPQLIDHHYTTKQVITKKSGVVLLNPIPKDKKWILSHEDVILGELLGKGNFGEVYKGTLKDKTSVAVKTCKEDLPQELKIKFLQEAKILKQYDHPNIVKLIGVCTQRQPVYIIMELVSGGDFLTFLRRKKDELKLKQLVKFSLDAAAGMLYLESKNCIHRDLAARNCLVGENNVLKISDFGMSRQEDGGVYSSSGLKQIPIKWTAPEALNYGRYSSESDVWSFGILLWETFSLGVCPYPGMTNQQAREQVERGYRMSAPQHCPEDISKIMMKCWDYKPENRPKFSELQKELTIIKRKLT
Excerpt: Supplement 41589_2023_1459_MOESM4_ESM.xlsx, sheet "CATDS matrix" | column: FER

GSPT1;GSPT2 = assay: Kinobeads competition binding: GSPT1;GSPT2; design: species or system human; details: target GSPT1;GSPT2
MTOR = assay: Kinobeads competition binding: MTOR; design: species or system human; details: target MTOR
MYLK3 = assay: Kinobeads competition binding: MYLK3; design: species or system human; details: target MYLK3;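 further: share of all-target engagement taken by this protein at its own Kdapp concentration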
NNT = assay: Kinobeads competition binding: NNT; design: species or system human; details: target NNT;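 further: share of total target engagement due to this protein at one drug concentration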
PI4KB = assay: Kinobeads competition binding: PI4KB; design: species or system human; details: target PI4KB;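 further: selectivity score: engagement of this protein divided by summed engagement of all targets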
PIK3C2A = assay: Kinobeads competition binding: PIK3C2A; design: species or system human; details: target PIK3C2A;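 further: share of all-target engagement taken by this protein at its own Kdapp concentration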
PKN2 = biological target: T5, PKN2 (Homo sapiens, UniProt Q16513); assay: Kinobeads competition binding: PKN2; details: target PKN2;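 further: share of total target engagement due to this protein at one drug concentration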
T5 construct: a mixture of lysates from five cancer cell lines; endogenous in cells
T5 sequence (Q16513 whole entry): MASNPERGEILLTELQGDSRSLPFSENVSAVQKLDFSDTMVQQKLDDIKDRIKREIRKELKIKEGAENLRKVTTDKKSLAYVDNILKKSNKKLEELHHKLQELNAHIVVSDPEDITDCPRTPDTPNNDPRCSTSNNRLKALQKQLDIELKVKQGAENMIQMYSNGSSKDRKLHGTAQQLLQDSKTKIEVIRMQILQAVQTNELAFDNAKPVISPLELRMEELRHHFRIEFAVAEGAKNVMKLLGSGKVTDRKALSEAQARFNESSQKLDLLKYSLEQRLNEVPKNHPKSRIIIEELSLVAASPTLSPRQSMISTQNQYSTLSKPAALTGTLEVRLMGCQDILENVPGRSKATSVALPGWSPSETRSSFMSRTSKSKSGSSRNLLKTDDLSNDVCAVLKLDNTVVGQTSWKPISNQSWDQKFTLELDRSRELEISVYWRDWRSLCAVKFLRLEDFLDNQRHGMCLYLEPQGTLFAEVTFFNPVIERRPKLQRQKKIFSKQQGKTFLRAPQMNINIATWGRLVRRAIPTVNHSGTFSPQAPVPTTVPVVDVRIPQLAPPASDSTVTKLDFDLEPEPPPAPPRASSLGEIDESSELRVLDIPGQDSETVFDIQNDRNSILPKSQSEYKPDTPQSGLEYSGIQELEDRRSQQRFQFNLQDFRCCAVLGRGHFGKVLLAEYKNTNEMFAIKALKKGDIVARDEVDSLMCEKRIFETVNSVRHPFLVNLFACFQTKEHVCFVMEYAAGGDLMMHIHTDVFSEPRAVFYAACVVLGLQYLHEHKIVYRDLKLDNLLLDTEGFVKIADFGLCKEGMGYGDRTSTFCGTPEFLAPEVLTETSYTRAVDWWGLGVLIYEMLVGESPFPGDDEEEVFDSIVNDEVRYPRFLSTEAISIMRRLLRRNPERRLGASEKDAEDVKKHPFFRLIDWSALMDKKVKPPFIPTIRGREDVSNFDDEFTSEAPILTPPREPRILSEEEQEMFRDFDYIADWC
Excerpt: Supplement 41589_2023_1459_MOESM4_ESM.xlsx, sheet "CATDS matrix" | column: PKN2

T1 sequence (P00533 25-1210): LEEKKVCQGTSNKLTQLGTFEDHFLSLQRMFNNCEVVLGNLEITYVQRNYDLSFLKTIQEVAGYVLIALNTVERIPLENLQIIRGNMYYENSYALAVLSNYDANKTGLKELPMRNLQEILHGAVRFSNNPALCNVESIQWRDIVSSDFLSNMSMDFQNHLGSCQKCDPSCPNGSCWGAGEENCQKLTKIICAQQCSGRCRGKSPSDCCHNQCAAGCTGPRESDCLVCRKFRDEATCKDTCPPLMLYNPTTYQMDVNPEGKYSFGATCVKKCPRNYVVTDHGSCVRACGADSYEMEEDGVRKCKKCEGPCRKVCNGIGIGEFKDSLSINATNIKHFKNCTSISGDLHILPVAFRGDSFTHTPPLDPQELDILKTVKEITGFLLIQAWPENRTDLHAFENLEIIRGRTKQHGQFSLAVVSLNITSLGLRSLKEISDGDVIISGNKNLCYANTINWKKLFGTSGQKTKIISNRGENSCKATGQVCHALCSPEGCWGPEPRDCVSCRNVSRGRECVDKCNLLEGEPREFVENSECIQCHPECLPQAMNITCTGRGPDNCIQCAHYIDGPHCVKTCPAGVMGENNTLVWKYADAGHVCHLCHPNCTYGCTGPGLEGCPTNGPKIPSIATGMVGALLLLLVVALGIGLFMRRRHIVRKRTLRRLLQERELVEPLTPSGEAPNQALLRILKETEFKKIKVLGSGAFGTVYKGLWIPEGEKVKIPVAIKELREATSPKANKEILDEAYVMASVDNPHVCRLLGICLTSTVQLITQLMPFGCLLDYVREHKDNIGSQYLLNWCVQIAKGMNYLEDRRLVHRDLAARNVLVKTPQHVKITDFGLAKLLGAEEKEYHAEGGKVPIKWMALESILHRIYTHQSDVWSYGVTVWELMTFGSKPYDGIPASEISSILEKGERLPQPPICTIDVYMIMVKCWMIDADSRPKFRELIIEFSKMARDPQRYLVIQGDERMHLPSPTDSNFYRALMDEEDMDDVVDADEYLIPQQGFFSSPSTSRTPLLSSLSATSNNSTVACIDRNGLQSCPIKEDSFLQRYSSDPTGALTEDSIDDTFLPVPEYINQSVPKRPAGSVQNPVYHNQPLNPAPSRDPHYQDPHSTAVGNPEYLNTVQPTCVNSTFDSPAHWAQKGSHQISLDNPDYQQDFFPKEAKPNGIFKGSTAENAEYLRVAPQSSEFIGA

SMILES | CATDS (EGFR) | CATDS (ACOX3) | CATDS (CDC42) | CATDS (DDR2) | CATDS (EPHB2) | CATDS (ERN2) | CATDS (FER) | CATDS (GSPT1;GSPT2) | CATDS (MTOR) | CATDS (MYLK3) | CATDS (NNT) | CATDS (PI4KB) | CATDS (PIK3C2A) | CATDS (PKN2) | potency estimated from few doses (EGFR; Kinobeads two-dose, Drugmatrix - all 2, read-out: apparent Kd EGFR) [nM]
CCc1cc2c(cc1N1CCC(N3CCOCC3)CC1)C(C)(C)c1[nH]c3cc(C#N)ccc3c1C2=O [Alectinib] | 0 | 0 | 0 | 0 | 0 | 0 | 0 | 0 | 0 | 0 | 0 | 0 | 0 | 0 | 
CCN1CCN(Cc2ccc(Nc3ncc(F)c(-c4cc(F)c5nc(C)n(C(C)C)c5c4)n3)nc2)CC1 [Abemaciclib] | 0 | 0 | 0 | 0 | 0 | 0 | 0 | 0 | 0 | 0 | 0 | 0 | 0 | 0 | 
Nc1ncnc2[nH]c(-c3ccccc3)nc12 [AH5015_KCGS] | 0 | 0 | 0 | 0 | 0.02863 | 0 | 0.03222 | 0 | 0 | 0 | 0 | 0 | 0 | 0 | 
N#CC1(c2ccc(NC(=O)c3cccnc3NCc3ccncc3)cc2)CCCC1 [Apatinib] | 0 | 0 | 0 | 0 | 0 | 0 | 0 | 0 | 0 | 0 | 0 | 0 | 0 | 0 | 
C#Cc1cccc(Nc2ncnc3cc(OC)c(OC4CCN(C)CC4)cc23)c1 [BI00007366] |  |  |  |  |  |  |  |  |  |  |  |  |  |  | > 1000
CN(C)C/C=C/C(=O)Nc1cc2c(Nc3ccc(F)c(Cl)c3)ncnc2cc1O[C@H]1CCOC1 [Afatinib] |  | 0 | 0 |  | 0 |  | 0 |  |  |  | 0 |  | 0 | 0 | 
